pIC50: −log10 of the molar value.

Twelve compounds from patent EP1501514B1, “PROTEIN KINASE MODULATORS AND METHODS OF USE” (Exelixis, Inc., priority 2002, dated 2003) can be followed below.

The first assay addresses T1, Chk1 (Homo sapiens, UniProt O14757).
T1 construct: purchased Upstate Biotechnology
T1 sequence (O14757 1-476): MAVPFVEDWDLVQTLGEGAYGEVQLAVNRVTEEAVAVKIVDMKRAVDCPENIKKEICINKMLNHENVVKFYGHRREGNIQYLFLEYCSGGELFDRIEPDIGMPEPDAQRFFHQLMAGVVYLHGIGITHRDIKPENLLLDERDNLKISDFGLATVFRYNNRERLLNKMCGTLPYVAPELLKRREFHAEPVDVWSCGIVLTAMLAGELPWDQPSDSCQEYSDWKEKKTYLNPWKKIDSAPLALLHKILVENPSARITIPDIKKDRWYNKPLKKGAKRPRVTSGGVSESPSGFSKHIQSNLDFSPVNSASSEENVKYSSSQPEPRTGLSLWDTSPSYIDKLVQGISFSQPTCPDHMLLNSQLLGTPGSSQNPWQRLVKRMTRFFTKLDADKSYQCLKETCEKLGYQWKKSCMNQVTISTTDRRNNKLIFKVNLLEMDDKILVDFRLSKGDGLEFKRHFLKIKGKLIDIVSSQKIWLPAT
As to the kind of experiment: Chk1 assay: incorporation of γ-33P ATP into immobilized myelin basic protein.
Details: not given
It counts as biochemical. The protocol: Chk1 and Chk2 assays were performed by measuring incorporation of γ-^33P ATP into immobilized myelin basic protein (MBP). High binding white 384 well plates (Greiner) were coated with MBP (Sigma #M-1891) by incubation of 60ul/well of 20µg/ml MBP in Tris-buffered saline (TBS; 50mM Tris pH 8.0, 138mM NaCl, 2.7mM KCl) for 24 hours at 4° C. Plates were washed 3X with 100µl TBS. Kinase reactions were carried out in a total volume of 34µl in kinase buffer (5mM Hepes pH 7.6, 15mM NaCl, 0.01% bovine gamma globulin (Sigma #I-5506), 10mM MgCl2, 1mM DTT, 0.02% TritonX-100). Compound dilutions were performed in DMSO and added to assay wells to a final DMSO concentration of 1%. Each data point was measured in duplicate, and at least two duplicate assays were performed for each individual compound determination. Chkl and Chk2 enzymes (Upstate Biotechnology) were added to final concentrations of 10nM (Chkl) or 20nM (Chk2). A mixture of unlabeled ATP and γ-^33P ATP was added to start the reaction (2x10^6 cpm of γ-^33P ATP per well (3000Ci/mmole) and either 10µM or 30µM unlabeled ATP (for Chkl and Chk2 assays respectively). The reaction was carried out for 1 hour at room temperature with shaking. Plates were washed 7x with TBS, followed by the addition of 50µl/well scintillation fluid (Wallac). Plates were read using a Wallac Trilux counter. This is only one format of such assays, various other formats are possible, as known to those skilled in the art.
The above assay procedure can be used to determine the IC50 for inhibition and/or the inhibition constant Ki. The IC50 is defined as the concentration of compound required to reduce the enzyme activity by 50% under the conditions of the assay. […] The Ki for a compound may be determined from the IC50 based on three assumptions. First, only one compound molecule binds to the enzyme and there is no cooperativity. […] Third, the enzymatic rate of the enzyme-inhibitor complex is zero. The rate (i.e., compound concentration) data are fitted to the equation: V = Vmax E0 [I-((E0+I0+Kd)-sqrt(((E0+I0+Kd))^2 -4E0 I0))/(2E0)] [formula]
One may read the pIC50 as the IC50 on a negative log10 scale, so that one unit is a factor of ten. Low readings indicate a high IC50, high ones a low IC50. For `Nc1ncc(-c2cccc(C(=O)NCc3ccc(-c4cccs4)cc3)c2)nc1C(=O)N[C@H]1CCCNC1` [compound 854, 3-amino-N-[(3S)-piperidin-3-yl]-6-{3-[({[4-(2-thienyl)phenyl]methyl}amino)carbonyl]phenyl}pyrazine-2-carboxamide], the pIC50 was above 7.30.
Same read-out and setting: with `Cc1ccc(C(=O)Nc2cccc(-c3cnc(N)c(C(=O)N[C@H]4CCCNC4)n3)c2)cn1` [compound 978, 3-amino-6-(3-{[(6-methylpyridin-3-yl)carbonyl]amino}phenyl)-N-[(3S)-piperidin-3-yl]pyrazine-2-carboxamide] the figure was above 7.30; with `Nc1ncc(-c2cccc(C(=O)NCc3cc(C(F)(F)F)ccc3Cl)c2)nc1C(=O)N[C@H]1CCCNC1` [compound 994, 3-amino-6-{3-[({[2-chloro-5-(trifluoromethyl)phenyl]methyl}amino)carbonyl]phenyl}-N-[(3S)-piperidin-3-yl]pyrazine-2-carboxamide], above 7.30.
On the same count and under the same terms, with `Nc1ncc(-c2cccc(C(=O)NCc3ccc(C(F)(F)F)cc3F)c2)nc1C(=O)N[C@H]1CCCNC1` [compound 1001, 3-amino-6-{3-[({[2-fluoro-4-(trifluoromethyl)phenyl]methyl}amino)carbonyl]phenyl}-N-[(3S)-piperidin-3-yl]pyrazine-2-carboxamide] the figure was above 7.30; with `Nc1ncc(-c2cccc(C(=O)NCc3ccc(F)c(Cl)c3)c2)nc1C(=O)N[C@H]1CCCNC1` [compound 1006, 3-amino-6-[3-({[(3-chloro-4-fluorophenyl)methyl]amino}carbonyl)phenyl]-N-[(3S)-piperidin-3-yl]pyrazine-2-carboxamide], above 7.30.

Still in this assay, the particulars now being: Table 11; inhibition given as IC50 class symbol.
In turn, `CC(C)(C)c1nnc(-c2nc(-c3cccc(CO)c3)cnc2N)[nH]1` [compound 569, (3-{5-amino-6-[5-(1,1-dimethylethyl)-4H-1,2,4-triazol-3-yl]pyrazin-2-yl}phenyl)methanol] had a pIC50 of 5.00 to 6.00.
On the same count and under the same terms, the value for `C[C@@H](NC(=O)c1cccc(-c2cnc(N)c(C(=O)N[C@H]3CCNC3)n2)c1)c1ccccc1` [compound 716, 3-amino-6-[3-({[(1R)-1-phenylethyl]amino}carbonyl)phenyl]-N-[(3S)-pyrrolidin-3-yl]pyrazine-2-carboxamide] was 5.00 to 6.00.
`N=C(NNc1ccccc1)c1nc(-c2cccc(C(=O)N[C@H]3CCc4ccccc43)c2)cnc1N` [compound 720, 3-{5-amino-6-[imino(2-phenylhydrazino)methyl]pyrazin-2-yl}-N-[(1S)-2,3-dihydro-1H-inden-1-yl]benzamide] had a pIC50 below 5.00.
Same read-out and setting: the value for `CC(C)(C)OC(=O)N1CC[C@H](NC(=O)c2nc(-c3cccc(C(=O)NCc4ccc(Cl)cc4)c3)cnc2N)C1` [compound 756, 1,1-dimethylethyl (3S)-3-[({3-amino-6-[3-({[(4-chlorophenyl)methyl]amino}carbonyl)phenyl]pyrazin-2-yl}carbonyl)amino]pyrrolidine-1-carboxylate] was 6.00 to 7.30; that for `Nc1ncc(-c2cccc(C(=O)NCc3cccnc3)c2)nc1C(=O)N[C@H]1CCNC1` [compound 762, 3-amino-6-(3-{[(pyridin-3-ylmethyl)amino]carbonyl}phenyl)-N-[(3S)-pyrrolidin-3-yl]pyrazine-2-carboxamide] was 6.00 to 7.30; that for `Nc1ncc(-c2cccc(C(=O)N[C@H]3CCc4ccccc43)c2)nc1C(=O)N[C@H]1CCCNC1` [compound 764, 3-amino-6-(3-{[(1S)-2,3-dihydro-1H-inden-1-ylamino]carbonyl}phenyl)-N-[(3S)-piperidin-3-yl]pyrazine-2-carboxamide] was above 7.30.
Still for that read-out and setting: the value for `CC(C)(C)OC(=O)N1CC[C@H](CNC(=O)c2nc(-c3cccc(C(=O)N[C@H]4CCc5ccccc54)c3)cnc2N)C1` [compound 784, 1,1-dimethylethyl (3R)-3-[({[3-amino-6-(3-{[(1S)-2,3-dihydro-1H-inden-1-ylamino]carbonyl}phenyl)pyrazin-2-yl]carbonyl}amino)methyl]pyrrolidine-1-carboxylate] was below 5.00.
